Experimental data reported in article PMC9959130, “Effects of Side Chain and Peptide Bond Modifications on the Targeting Properties of Stabilized Minigastrin Analogs” (Pharmaceuticals, 2023).
Where two headings read alike, the source gives them in different places. Each block holds one compound with its values, some of them ahead of it.

What was measured:
[1] = Distribution coefficient (LogD) in octanol/PBS; type: physicochemical; settings: radiolabeled peptide (111In-labeled where the label names no radiometal); shake-flask octanol/PBS, 100 pmol/mL, 15 min shaking at 1500 rpm, γ-counter; mean ± SD, n = 8
Description: The distribution coefficient (LogD) in octanol/PBS was determined by mixing 0.5 mL of the radiolabeled DOTA peptides diluted in PBS (100 pmol/mL) and 0.5 mL octanol in a 1.5 mL microcentrifuge tube (n = 8). After shaking for 15 min (MS3 Basic, IKA, Staufen, Germany) at 1500 rpm and a waiting time of 10 min to ensure appropriate separation of the two phases, 100 µL aliquots of each phase were pipetted into 4.5 mL tubes. The tubes were measured using a γ-counter (2480 Wizard2 3″, PerkinElmer Life Sciences and Analytical Instruments, formerly Wallac Oy, Turku, Finland) and the LogD value was determined using following equation: LogD=Log(cpmoctanol phase/cpmPBS phase)

Complex stability in PBS = type: physicochemical; settings: 1000 pmol/mL in PBS, room temperature, 4 h after incubation, n = 1
Description: In vitro stability studies were performed in human serum (n = 2). The radiolabeled peptides (1000 pmol/mL) were incubated at 37 °C and a sample of 100 μL was taken at 1, 4, and 24 h after incubation. After the precipitation of proteins with ACN at 1:1.5 (v/v), centrifugation (14,000 rpm, 2 min, centrifuge 5424, Eppendorf AG, Germany) and dilution with water at 1:1 (v/v), an aliquot of 100 μL of this solution was analyzed by HPLC. Radioligand breakdown was monitored and the percentage of intact radiopeptide was calculated using Chromeleon Dionex Software (Version 7.2.9.11323). Additionally, the radiolabeled peptides (1000 pmol/mL) were incubated in PBS (n = 1) at room temperature to confirm the complex stability as a control.

[2] = Biodistribution in BALB/c nude mice bearing A431-CCK2R/A431-mock xenografts; type: in vivo; settings: female, mouse, iv, 20 pmol, total radioactivity, 20 pmol, gallium-68, 1 h p.i., mean ± SD n = 4; for tissue uptake at 1 h: xenografted BALB/c nude mice, i.v.; for tissue to tissue ratio at 1 h: BALB/c nude mice
Description: The overall biodistribution and tumor targeting properties of selected radiolabeled peptides were evaluated in female athymic BALB/c nude mice (Charles River, Sulzfeld, Germany, age of 7 to 9 weeks). After tumor induction with 2 × 10^6 A431-CCK2R or A431-mock cells (subcutaneously injected in 200 μL DMEM into the right and left flank) and a waiting period of 10–14 days (sufficient to achieve tumors of ∼0.25 g), mice were randomly divided into groups of four and treated with a bolus injection of 150 µL of the injectable solution containing the radiolabeled peptide via a lateral tail vein to achieve an injected radioactivity of 150–200 kBq and a total injected peptide amount of ~20 pmol (n = 4 for each radiopeptide). For DOTA-[(N-Me)1Nal^8]MGS5, additional biodistribution studies were performed with gallium-68 (~0.5 MBq, 20 pmol) and lutetium-177 (~0.5 MBq, 20 pmol). The animals were euthanatized by cervical dislocation at 1 h (gallium-68) or 4 h p.i. (indium-111/ lutetium-177). The tumors and other tissues (blood, lung, heart, muscle, spleen, intestine, liver, kidney, stomach, and pancreas) were dissected, weighed, and the radioactivity measured in the γ-counter. The rest of the body and a standard of the solution injected was also measured together with the collected samples. The percentage of injected activity per gram of tissue (% IA/g) and the tumor-to-organ activity ratio of selected tissues were calculated for each mouse and time point studied. Origin software (Microcal Origin 6.1, Northampton, MA, USA) was used for statistical analysis (independent t-test for two populations; significance level p < 0.05).

human CCK2R = biological target: T1, human CCK2R (Homo sapiens, UniProt P32239); assay: Calcium mobilization assay (fluo-4 AM) on A431-CCK2R cells; type: cell-based; settings: normalized to 10^−6 M pentagastrin, mean ± SEM of at least three independent experiments in triplicates
T1 construct: expressed in transfected cells; host or cells: A431 human epidermoid carcinoma cells, stably transfected (A431-CCK2R); originally provided by Dr. Luigi Aloj
T1 sequence (P32239 1-447): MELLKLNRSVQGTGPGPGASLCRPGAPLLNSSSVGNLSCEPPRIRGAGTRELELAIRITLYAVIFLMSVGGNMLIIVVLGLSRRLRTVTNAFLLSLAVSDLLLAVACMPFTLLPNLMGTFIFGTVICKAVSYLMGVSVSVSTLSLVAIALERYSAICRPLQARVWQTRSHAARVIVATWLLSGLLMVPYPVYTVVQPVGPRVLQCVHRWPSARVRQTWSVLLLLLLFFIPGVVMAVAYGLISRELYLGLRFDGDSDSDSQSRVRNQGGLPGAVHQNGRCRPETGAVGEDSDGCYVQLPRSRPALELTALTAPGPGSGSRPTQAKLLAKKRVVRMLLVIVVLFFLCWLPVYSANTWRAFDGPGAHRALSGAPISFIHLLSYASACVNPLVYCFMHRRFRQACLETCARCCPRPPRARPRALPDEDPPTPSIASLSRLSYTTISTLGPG
Source text: A431 human epidermoid carcinoma cells overexpressing human CCK2R through stable transfection (A431-CCK2R) and the same cell line transfected with the empty vector (A431-mock) were used for cell assays. The cells are constantly available in our laboratory and were originally provided by Dr. Luigi Aloj. All cell culture media and reagents were obtained from Invitrogen Corporation (Lofer, Austria) or Sigma-Aldrich (Darmstadt, Germany). Dulbecco’s modified Eagle’s medium (DMEM) supplemented with 10% (v/v) fetal bovine serum and 1% of 100x penicillin−streptomycin−glutamine was used for cell culture. The cells were passaged three times per week using a 10x 2.5% trypsin-EDTA solution in a 1:2–1:3 ratio.
Analog-induced receptor activation was evaluated by a calcium mobilization assay using the calcium-sensitive dye fluo-4 AM (ThermoFisher Scientific, Montigny-Le-Bretonneux, France), as previously described. Briefly, A431-CCK2R cells were seeded (60,000/well) in flat clear bottom black 96-well plates (Corning, Bagneaux-sur-Loing, France) coated with poly-L-ornithine (100 µg/mL, 1 h, 37 °C) (Sigma Aldrich, Saint Quentin Fallavier, France). Cytosolic Ca^2+ variations were measured before and after application of 50 µL of graded concentrations of the investigated peptides in the vicinity of the cells, and the effects on Ca^2+ mobilization were measured. Data were background corrected and normalized for the amplitudes caused by the medium alone (0%, no self-effect) or 10^−6 M pentagastrin (100%, maximal Ca^2+ mobilization response). Prism 4.0 software was used to calculate the EC50 values and the results were expressed as mean ± SEM for at least three independent experiments performed in triplicates.

[3] = cited from earlier work
Description: (−2.33 ± 0.23) > [^111In]In-DOTA-MGS5 (−2.0 ± 0.1) > [^111In]In-DOTA-[2Nal^8]MGS5 (−1.71 ± 0.19) > [^111In]In-DOTA-[DLys^1]MGS5 (−1.31 ± 0.11). […] For the time point of 24 h after incubation, lowest values were found for [^111In] ...

[4] = Metabolic studies in BALB/c mice (intact radiopeptide by radio-HPLC); type: in vivo; settings: i.v., 2 nmol, 10 min p.i., two animals per peptide
Description: All animal experiments were approved by the Austrian Ministry of Science (BMWF-66.011/0075- WF/V/3b/2016) and performed in accordance with the Austrian Animal Protection Act. Metabolic studies characterizing the stability of selected radioligands against enzymatic degradation were carried out in 7 to 8 week old female BALB/c mice (Charles River, Sulzfeld, Germany). The mice (two animals for each peptide) were intravenously injected into a lateral tail vein with 5–10 MBq of the ^111In-labeled peptide derivatives, corresponding to 2 nmol total peptide. At the time point of 10 min p.i. the animals were euthanatized by cervical dislocation. A sample of urine and blood was immediately collected. Liver and kidneys were dissected, mixed with 20 mM HEPES buffer pH 7.3 (1:1, w/v) and homogenized using an Ultra-Turrax T8 homogenizer (IKA-Werke, Staufen, Germany) for 1 min. All samples taken were analyzed by analytical HPLC using the low-sensitivity loop for urine and the high-sensitivity loop for blood, liver and kidney. Before injection into the HPLC system, all samples except urine were treated with ACN and diluted with water as described for stability studies in human serum. The percentage of intact radiopeptide in the analyzed samples was calculated by integration of the different peaks found in the radiochromatogram using Chromeleon Dionex Software (Version 7.2.9.11323).

LogD [1]: −2.2 ± 0.1
Stability of the DOTA-complex in PBS (Complex stability in PBS): 99.2%
tissue uptake at 1 h ([2]; BALB/c nude, heart, read-out: Uptake in heart): 0.95 ± 0.32 %ID/g
tissue uptake at 1 h ([2]; BALB/c nude, intestine, read-out: Uptake in intestine): 0.82 ± 0.18 %ID/g
tissue uptake at 1 h ([2]; BALB/c nude, lung, read-out: Uptake in lung): 1.61 ± 0.42 %ID/g
tissue uptake at 1 h ([2]; BALB/c nude, muscle, read-out: Uptake in muscle): 0.45 ± 0.08 %ID/g
tissue uptake at 1 h ([2]; BALB/c nude, spleen, read-out: Uptake in spleen): 1.19 ± 0.25 %ID/g
tissue to tissue ratio at 1 h ([2]; athymic BALB/c nude, A431-CCK2R xenograft / blood, A431-CCK2R xenograft, read-out: tumor-to-organ ratio: blood): 6.03 ± 2.26
tissue to tissue ratio at 1 h ([2]; athymic BALB/c nude, A431-CCK2R xenograft / kidney, A431-CCK2R xenograft, read-out: tumor-to-organ ratio: kidney): 2.36 ± 1.14
tissue to tissue ratio at 1 h ([2]; athymic BALB/c nude, A431-CCK2R xenograft / stomach, A431-CCK2R xenograft, read-out: tumor-to-organ ratio: stomach): 10.2 ± 3.5
tissue uptake at 1 h ([2]; athymic BALB/c nude, A431-CCK2R xenograft, read-out: Uptake in A431-CCK2R xenograft): 15.7 ± 2.21 %ID/g
tissue uptake at 1 h ([2]; athymic BALB/c nude, A431-mock xenograft, read-out: Uptake in A431-mock xenograft): 1.51 ± 0.98 %ID/g
tissue uptake at 1 h ([2]; athymic BALB/c nude, blood, read-out: Uptake in blood): 2.82 ± 0.88 %ID/g
tissue uptake at 1 h ([2]; athymic BALB/c nude, kidneys, read-out: Uptake in kidneys): 7.7 ± 3.1 %ID/g
tissue uptake at 1 h ([2]; athymic BALB/c nude, liver, read-out: Uptake in liver): 2.25 ± 0.55 %ID/g
tissue uptake at 1 h ([2]; athymic BALB/c nude, pancreas, read-out: Uptake in pancreas): 0.87 ± 0.29 %ID/g
tissue uptake at 1 h ([2]; athymic BALB/c nude, stomach, read-out: Uptake in stomach): 1.63 ± 0.41 %ID/g
Compound: CCCC[C@@H](C(=O)N[C@@H](CC(=O)O)C(=O)N(C)[C@@H](Cc1cccc2ccccc12)C(N)=O)N(C)C(=O)[C@H](Cc1c[nH]c2ccccc12)NC(=O)CNC(=O)[C@H](Cc1ccc(O)cc1)NC(=O)[C@H](C)NC(=O)[C@@H](CCC(=O)O)NC(=O)CN1CCN(CC(=O)O)CCN(CC(=O)O)CCN(CC(=O)O)CC1 [[^68Ga]Ga-DOTA-[(N-Me)1Nal^8]MGS5, metal not drawn]

EC50 (human CCK2R): 7.9 ± 1.9 nM
Compound: CCCC[C@@H](C(=O)N[C@@H](CC(=O)O)C(=O)N[C@@H](Cc1cccc2ccccc12)C(N)=O)N(C)C(=O)[C@H](Cc1c[nH]c2ccccc12)NC(=O)CNC(=O)[C@H](Cc1ccc(O)cc1)NC(=O)[C@H](C)NC(=O)[C@@H](CCC(=O)O)NC(=O)CN1CCN(CC(=O)O)CCN(CC(=O)O)CCN(CC(=O)O)CC1 [DOTA-MGS5, DOTA-DGlu-Ala-Tyr-Gly-Trp-(N-Me)Nle-Asp-1Nal-NH2, reference compound]
LogD [3]: −2.0 ± 0.1

Stability of the DOTA-complex in PBS (Complex stability in PBS): 96.2%
Intact radiopeptide in kidney ([4]; kidney homogenate): 40.2 ± 4.1%
Intact radiopeptide in liver ([4]; liver homogenate): 94.9 ± 2.8%
Intact radiopeptide in blood [4]: 98.4 ± 0.1%
Intact radiopeptide in urine [4]: 15.9 ± 3.4%
Compound: CCCC[C@@H](C(=O)N[C@@H](CC(=O)O)C(=O)N(C)[C@@H](Cc1cccc2ccccc12)C(N)=O)N(C)C(=O)[C@H](Cc1c[nH]c2ccccc12)NC(=O)CNC(=O)[C@H](Cc1ccc(O)cc1)NC(=O)[C@H](C)NC(=O)[C@@H](CCC(=O)O)NC(=O)CN1CCN(CC(=O)O)CCN(CC(=O)O)CCN(CC(=O)O)CC1 [[^111In]In-DOTA-[(N-Me)1Nal^8]MGS5] [metal not drawn]
